Reference: patent US20250230155A1 (Vanderbilt University, priority 2021, published 2025)

Target: T1, human mAChR M4 (Homo sapiens, UniProt P08173)
T1 construct: expressed in transfected cells
T1 sequence (P08173 1-479): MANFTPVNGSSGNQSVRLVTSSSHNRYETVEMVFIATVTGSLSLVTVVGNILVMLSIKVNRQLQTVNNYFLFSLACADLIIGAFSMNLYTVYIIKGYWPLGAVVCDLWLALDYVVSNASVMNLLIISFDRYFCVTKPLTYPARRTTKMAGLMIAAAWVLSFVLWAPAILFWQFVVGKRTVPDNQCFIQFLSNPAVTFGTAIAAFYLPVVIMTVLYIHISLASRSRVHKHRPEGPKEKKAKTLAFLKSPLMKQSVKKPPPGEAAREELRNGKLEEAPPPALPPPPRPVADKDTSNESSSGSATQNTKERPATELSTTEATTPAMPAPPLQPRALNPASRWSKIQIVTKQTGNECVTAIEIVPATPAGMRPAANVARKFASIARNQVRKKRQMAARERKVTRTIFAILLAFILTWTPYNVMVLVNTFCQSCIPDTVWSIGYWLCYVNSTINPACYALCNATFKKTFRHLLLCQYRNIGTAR
Assay: mAChR M4 cell-based functional assay (calcium mobilization, CHO-K1 hM4-Gqi5 cells)
Conditions: for EC50: positive allosteric modulator activity, increase in the EC20 acetylcholine response, CHO-K1 hM4-Gqi5 cells, read-out: Human M4 EC50
How it was run: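 Fluorescent calcium read-out (Fluo-4 AM, FDSS, 1 Hz) in hM4-Gqi5 CHO-K1 cells, 11-point 1:3 compound series. Agonism scored on compound addition, PAM activity as increase of the 144 s EC20 acetylcholine response, antagonism as decrease of the 230 s EC80 response; four-parameter logistic fits give EC50 and Emax.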

[1] = CHO-K1, % ACh maximum at 30 μM, human M4

Row | Emax at 30 µM [1] [%] | EC50 [nM] | Emax [1] [%] | SMILES | Emax (CHO-K1) [%]
1 | 61 | 154 | – | Cc1nc(C)c(C)c(N2CCc3ncc(Nc4cccnc4F)cc3C2)n1 [compound 240, N-(2-fluoropyridin-3-yl)-6-(2,5,6-trimethylpyrimidin-4-yl)-5,6,7,8-tetrahydro-1,6-naphthyridin-3-amine] | –
2 | 54 | 2680 | – | Cc1cc(F)ncc1-c1cnc2c(c1)CN(c1nnc(C#N)c(C)c1C)CC2 [Example 320, 6-(3-(6-fluoro-4-methylpyridin-3-yl)-7,8-dihydro-1,6-naphthyridin-6(5H)-yl)-4,5-dimethylpyridazine-3-carbonitrile] | –
3 | 82 | 320 | – | Cc1ccc(Oc2cnc3c(c2)CN(c2nnc(C#N)c(C)c2C)CC3)c(F)c1 [Example 358, 6-(3-(2-fluoro-4-methylphenoxy)-7,8-dihydro-1,6-naphthyridin-6(5H)-yl)-4,5-dimethylpyridazine-3-carbonitrile] | –
4 | 96 | 7 | – | Cc1cc(C#N)cnc1N1CCc2ncc(Nc3ccncc3F)cc2C1 [Example 599, 6-(3-((3-fluoropyridin-4-yl)amino)-7,8-dihydro-1,6-naphthyridin-6(5H)-yl)-5-methylnicotinonitrile] | –
5 | – | 584 | – | Clc1nc2c(c(N3CCc4ncc(C5CC5)cc4C3)n1)COC2 [compound 287, 2-chloro-4-(3-cyclopropyl-7,8-dihydro-1,6-naphthyridin-6(5H)-yl)-5,7-dihydrofuro[3,4-d]pyrimidine] | –
6 | 116 | 16 | – | Cc1cc(C(=O)N2CC(C)(F)C2)nnc1N1CCc2ncc(N3CCCn4nccc43)cc2C1 [Example 546, (6-(3-(6,7-dihydropyrazolo[1,5-a]pyrimidin-4(5H)-yl)-7,8-dihydro-1,6-naphthyridin-6(5H)-yl)-5-methylpyridazin-3-yl)(3-fluoro-3-methylazetidin-1-yl)methanone] | –
7 | 73 | 239 | – | Cc1c(C#N)nnc(N2CCc3ncc(Nc4ccccc4Cl)cc3C2)c1C [compound 39, 6-[3-(2-chloroanilino)-7,8-dihydro-5H-1,6-naphthyridin-6-yl]-4,5-dimethyl-pyridazine-3-carbonitrile] | –
8 | 65 | 2660 | – | Cc1cc(C(=O)NCc2ccc[nH]2)cnc1N1CCc2ncccc2C1 [compound 163, 6-(7,8-dihydro-5H-1,6-naphthyridin-6-yl)-5-methyl-N-(1H-pyrrol-2-ylmethyl)pyridine-3-carboxamide] | –
9 | 106 | 36 | – | Cc1cnccc1CNC(=O)c1cc(C)c(N2CCc3ncc(C(F)(F)F)cc3C2)nn1 [Example 494, 5-methyl-N-((3-methylpyridin-4-yl)methyl)-6-(3-(trifluoromethyl)-7,8-dihydro-1,6-naphthyridin-6(5H)-yl)pyridazine-3-carboxamide] | –
10 | 57 | 689 | – | Cc1cc(Nc2cnc3c(c2)CN(c2ncc(C#N)cc2C)CC3)n(C(C)C)n1 [Example 316, 6-(3-((1-isopropyl-3-methyl-1H-pyrazol-5-yl)amino)-7,8-dihydro-1,6-naphthyridin-6(5H)-yl)-5-methylnicotinonitrile] | –
11 | 33 | 504 | – | Clc1nc2c(c(N3CCc4ncc(-c5cnn(C6CC6)c5)cc4C3)n1)COC2 [compound 286, 2-chloro-4-(3-(1-cyclopropyl-1H-pyrazol-4-yl)-7,8-dihydro-1,6-naphthyridin-6(5H)-yl)-5,7-dihydrofuro[3,4-d]pyrimidine] | –
12 | 42 | 6530 | – | Cc1ccccc1OCCOc1cnc2c(c1)CN(c1ncc(C#N)cc1C)CC2 [Example 430, 5-methyl-6-(3-(2-(o-tolyloxy)ethoxy)-7,8-dihydro-1,6-naphthyridin-6(5H)-yl)nicotinonitrile] | –
13 | 120 | 472 | – | Cc1cc(C#N)cnc1N1CCc2ncc(N3CCC(C(F)(F)F)n4nccc43)cc2C1 (stereo not drawn) [Example 359, 5-methyl-6-(3-(7-(trifluoromethyl)-6,7-dihydropyrazolo[1,5-a]pyrimidin-4(5H)-yl)-7,8-dihydro-1,6-naphthyridin-6(5H)-yl)nicotinonitrile] | –
14 | – | 273 | 67 | Cc1cc(-c2cnc3c(c2)CN(c2nnc(C#N)c(C)c2C)CC3)ccn1 [Example 12] | –
15 | 105 | 45 | – | Cc1cc(C(=O)N2CC(F)(F)C2)nnc1N1CCc2ncc(N3CCCn4nccc43)cc2C1 [Example 544, (3,3-difluoroazetidin-1-yl)(6-(3-(6,7-dihydropyrazolo[1,5-a]pyrimidin-4(5H)-yl)-7,8-dihydro-1,6-naphthyridin-6(5/)-yl)-5-methylpyridazin-3-yl)methanone] | –
16 | 82 | 13 | – | [2H]C([2H])(NC(=O)c1cc(C)c(N2CCc3ncc(N4CCCn5nccc54)cc3C2)nn1)c1cscn1 [Example 508, 6-(3-(6,7-dihydropyrazolo[1,5-a]pyrimidin-4(5H)-yl)-7,8-dihydro-1,6-naphthyridin-6(5H)-yl)-5-methyl-N-(thiazol-4-ylmethyl-d2)pyridazine-3-carboxamide] | –
17 | 85 | 458 | – | Cc1ccc(-c2cnc3c(c2)CN(c2nnc(C#N)cc2C)CC3)cn1 [Example 392, 5-methyl-6-(3-(6-methylpyridin-3-yl)-7,8-dihydro-1,6-naphthyridin-6(5H)-yl)pyridazine-3-carbonitrile] | –
18 | 71 | 215 | – | Cc1cc(C(=O)Nc2ccncc2)cnc1N1CCc2ncc(-c3cn(C)nc3C)cc2C1 [Example 450, 6-(3-(1,3-dimethyl-1H-pyrazol-4-yl)-7,8-dihydro-1,6-naphthyridin-6(5H)-yl)-5-methyl-N-(pyridin-4-yl)nicotinamide] | –
19 | 89 | 100 | – | Cc1cc(C(=O)N2CC(C)(F)C2)nnc1N1CCc2ncc(N3CCO[C@H](C)C3)cc2C1 [Example 573, (R)-(3-fluoro-3-methylazetidin-1-yl)(5-methyl-6-(3-(2-methylmorpholino)-7,8-dihydro-1,6-naphthyridin-6(5H)-yl)pyridazin-3-yl)methanone] | –
20 | 96 | 60 | – | Cc1cc(C(=O)NCc2ccncc2)nnc1N1CCc2ncc(CC(F)(F)F)cc2C1 [Example 581, 5-methyl-N-(pyridin-4-ylmethyl)-6-(3-(2,2,2-trifluoroethyl)-7,8-dihydro-1,6-naphthyridin-6(5H)-yl)pyridazine-3-carboxamide] | –
21 | 95 | 178 | – | Cc1nc(NC2CC2)nc(N2CCc3ncc(Nc4ccnn4C)cc3C2)c1C [compound 278, 6-(2-(cyclopropylamino)-5,6-dimethylpyrimidin-4-yl)-N-(1-methyl-1H-pyrazol-5-yl)-5,6,7,8-tetrahydro-1,6-naphthyridin-3-amine] | –
22 | 97 | 226 | – | Cc1cc(C#N)cnc1N1CCc2ncc(-n3ccnc3)cc2C1 [Example 343, 6-(3-(1H-imidazol-1-yl)-7,8-dihydro-1,6-naphthyridin-6(5H)-yl)-5-methylnicotinonitrile] | –
23 | 78 | 921 | – | Cc1nc(Cl)c(C)c(N2CCc3ncc(Oc4ccc(F)cc4)cc3C2)n1 [compound 202, 6-(6-chloro-2,5-dimethyl-pyrimidin-4-yl)-3-(4-fluorophenoxy)-7,8-dihydro-5H-1,6-naphthyridine] | –
24 | 75 | 888 | – | Cc1cc(C(=O)NCc2ccc(C#N)nc2)cnc1N1CCc2ncc(-c3cn(C)nc3C)cc2C1 [Example 456, N-((6-cyanopyridin-3-yl)methyl)-6-(3-(1,3-dimethyl-1H-pyrazol-4-yl)-7,8-dihydro-1,6-naphthyridin-6(5H)-yl)-5-methylnicotinamide] | –
25 | 30 | 1220 | – | Cc1nn(C)cc1-c1cnc2c(c1)CN(c1nc(Cl)nc3c1COC3)CC2 [compound 285, 2-chloro-4-(3-(1,3-dimethyl-1H-pyrazol-4-yl)-7,8-dihydro-1,6-naphthyridin-6(5H)-yl)-5,7-dihydrofuro[3,4-d]pyrimidine] | –
26 | 70 | 906 | – | [2H]C1([2H])Cc2ncc(Nc3ccncc3C)cc2C([2H])([2H])N1c1nnc(C#N)cc1C [Example 607, 5-methyl-6-(3-((3-methylpyridin-4-yl)amino)-7,8-dihydro-1,6-naphthyridin-6(5H)-yl-5,5,7,7-d4)pyridazine-3-carbonitrile] | –

Row | SMILES | Emax at 30 µM [1] [%] | EC50 [nM] | Emax [1] [%] | Emax (CHO-K1) [%]
27 | COCc1nc(Cl)c(C)c(N2CCc3ncc(Br)cc3C2)n1 [compound 211, 3-bromo-6-(6-chloro-2-(methoxymethyl)-5-methylpyrimidin-4-yl)-5,6,7,8-tetrahydro-1,6-naphthyridine] | – | 123 | – | 99
28 | Cc1nc(Cl)c(C)c(N2CCc3ncccc3C2)n1 [compound 83, 6-(6-chloro-2,5-dimethyl-pyrimidin-4-yl)-7,8-dihydro-5H-1,6-naphthyridine] | – | 1540 | – | 77
29 | [2H]C([2H])([2H])c1cnc2c(c1)CN(c1nnc(C#N)cc1C)CC2 [Example 421, 5-methyl-6-(3-(methyl-d3)-7,8-dihydro-1,6-naphthyridin-6(5H)-yl)pyridazine-3-carbonitrile] | – | 336 | – | 89
